Data taken from patent publication US20240262826A1, “WILD TYPE KIT INHIBITORS” (Blueprint Medicines Corporation, priority 2022, published 2024).

Molecular target: wild type c-kit (Homo sapiens (Human), UniProt P10721)
Test: PathScan phospho c-kit (Tyr719) sandwich ELISA in SCF-stimulated M-07e cells (pKIT assay)
Format: cell-based
Details: ELISA assay (values not marked *)
Description: The ability of compounds of the disclosure (described herein as test compounds) to inhibit autophosphorylation of wild type c-kit was measures using either a PathScan phospho c-kit (Tyr719) sandwich ELISA (CST #7298) or a Phospho c-Kit (Tyr721) Assay Whole Cell Lysate Kit (MSD: 515DPD/catalog number K15119D-2).
For the PathScan phospho c-kit (Tyr719) sandwich ELISA: M-07e cells were resuspended at 2×10^6 cells/mL in phenol red free, serum-free, GM-CSF-free Iscove's Modified Dulbecco's Medium (IMDM) media with 1% Penicillin-Streptomycin. The cells were then dispensed into the wells of a U-bottom, 96-well plate at 50 uL per well using a multichannel pipet. The plate was allowed to incubate at 37° C. in a humidified tissue culture incubator for 4 hours.
After 4 hours of incubation, each well was dosed with 6.25 uL of test compound at a final DMSO concentration of 0.25% for 60 min at 37° C. to generate an 8-point dose concentration series of test compounds in duplicate. Cells were then incubated for 1 hour at 37° C. in a humidified tissue culture incubator. Next, human SCF at 500 ng/mL was added to the appropriate wells at 6.25 uL/well and the plate was shaken at 450 rpm at room temperature for 10 minutes. AlphaLISA 5× Lysis Buffer supplemented with 1× protease and phosphatase inhibitor was then added at 16 uL/well. The plate was sealed with an adherent cover and shaken at 4° C. at 600 rpm for 30 minutes. After this period of lysis, the plate was stored at −80° C.
When the 96-well plate containing M07e lysates was ready to be processed, the plate was brought to room temperature and 40 μl from each well was transferred to the wells of a PathScan Phospho-c-Kit (Tyr719) Sandwich ELISA plate (CST, Catalog #7298). The ELISA plate was sealed with an adherent cover and incubated for 2 hours at 37° C. Next, the wells were washed 4 times with the provided 1× Wash Buffer, and 100 uL/well of reconstituted Detection Antibody was added to each well, the plate sealed with an adherent cover, and incubated at 37° C. for 1 hour. The wash procedure was repeated and 100 uL/well of reconstituted HRP-Linked secondary antibody was added. The plate was sealed with an adherent cover and incubated at 37° C. for 1 hour. The wash procedure was repeated and 100 uL/well of TMB Substrate was added. The plate was incubated for 10 minutes at room temperature or until the positive reaction elicited a blue color in the appropriate wells. 100 uL/well of STOP solution was added and shaken gently for a few seconds a microplate reader or conventional spectrophotometer e.g., a Perkin Elmer Envision multimode plate reader, part #2105-0010.
An IC50 was calculated using a 4-parameter logistic nonlinear regression.

Chain of wild type c-kit (P10721 26-976): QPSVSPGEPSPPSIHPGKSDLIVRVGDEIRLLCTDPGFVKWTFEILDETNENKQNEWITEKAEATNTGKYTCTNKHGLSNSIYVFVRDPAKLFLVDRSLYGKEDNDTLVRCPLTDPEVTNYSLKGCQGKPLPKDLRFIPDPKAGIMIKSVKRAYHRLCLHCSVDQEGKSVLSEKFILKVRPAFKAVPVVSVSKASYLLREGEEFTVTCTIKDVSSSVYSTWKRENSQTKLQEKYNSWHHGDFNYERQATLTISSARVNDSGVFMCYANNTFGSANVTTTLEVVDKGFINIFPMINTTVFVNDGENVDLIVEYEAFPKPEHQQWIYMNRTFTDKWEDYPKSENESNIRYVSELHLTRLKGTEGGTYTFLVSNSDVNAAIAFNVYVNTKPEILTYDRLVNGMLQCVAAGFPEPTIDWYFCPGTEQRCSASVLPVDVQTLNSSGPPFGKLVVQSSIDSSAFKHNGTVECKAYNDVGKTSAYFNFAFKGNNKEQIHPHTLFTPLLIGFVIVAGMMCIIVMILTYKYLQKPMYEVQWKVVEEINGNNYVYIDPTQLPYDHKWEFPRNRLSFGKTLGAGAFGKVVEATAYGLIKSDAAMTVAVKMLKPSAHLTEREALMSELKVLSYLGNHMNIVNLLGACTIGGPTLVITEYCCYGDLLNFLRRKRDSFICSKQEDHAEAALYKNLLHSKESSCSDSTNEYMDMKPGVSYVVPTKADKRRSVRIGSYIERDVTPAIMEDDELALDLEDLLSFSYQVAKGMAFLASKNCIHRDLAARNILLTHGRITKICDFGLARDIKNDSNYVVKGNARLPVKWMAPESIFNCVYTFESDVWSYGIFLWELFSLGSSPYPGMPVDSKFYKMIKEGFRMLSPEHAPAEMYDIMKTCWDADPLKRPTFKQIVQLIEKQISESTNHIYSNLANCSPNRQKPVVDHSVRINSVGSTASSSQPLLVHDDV

Compound: COC(=O)N1CC(n2nnc(-c3ccc(C)c(NC(=O)c4cnn5ccc(NCCO)cc45)c3)n2)C1 [Example 142, Methyl 3-(5-(3-(5-((2-hydroxyethyl)amino)pyrazolo[1,5-a]pyridine-3-carboxamido)-4-methylphenyl)-2H-tetrazol-2-yl)azetidine-1-carboxylate]
- IC50: 17.1 nM

Compound: COC(=O)N1CC(n2nnc(-c3ccc(Cl)c(NC(=O)c4cnn5cc(N6CCOCC6)ccc45)c3)n2)C1 [Example 163, methyl 3-(5-(4-chloro-3-(6-morpholinopyrazolo[1,5-a]pyridine-3-carboxamido)phenyl)-2H-tetrazol-2-yl)azetidine-1-carboxylate]
- IC50: 9.3 nM

Compound: Cc1ccc(-c2nnn(C3CC(F)(F)C3)n2)cc1NC(=O)c1cnn2ccc(N3CC(CO)C3)cc12 [Example 103, N-(5-(2-(3,3-difluorocyclobutyl)-2H-tetrazol-5-yl)-2-methylphenyl)-5-(3-(hydroxymethyl)azetidin-1-yl)pyrazolo[1,5-a]pyridine-3-carboxamide]
- IC50: 2.4 nM

Compound: COCCNc1ccc2c(C(=O)Nc3cc(-c4nnn(C5CN(C(=O)OC)C5)n4)ccc3Cl)cnn2c1 [Example 164, Methyl 3-(5-(4-chloro-3-(6-((2-methoxyethyl)amino)pyrazolo[1,5-a]pyridine-3-carboxamido)phenyl)-2H-tetrazol-2-yl)azetidine-1-carboxylate]
- IC50: 8 nM

Compound: O=C(Nc1cc(-c2nnn(CC34COC(C3)C4)n2)ccc1Cl)c1cnn2ccccc12 [Example 18, N-(5-(2-((2-oxabicyclo[2.1.1]hexan-4-yl)methyl)-2H-tetrazol-5-yl)-2-chlorophenyl)pyrazolo[1,5-a]pyridine-3-carboxamide]
- IC50: 29.6 nM

Compound: Cc1ccc(-c2nnn(C3CN(S(=O)(=O)C(C)C)C3)n2)cc1NC(=O)c1cnn2ccccc12 [Example 177, N-(5-(2-(1-(isopropylsulfonyl)azetidin-3-yl)-2H-tetrazol-5-yl)-2-methylphenyl)pyrazolo[1,5-a]pyridine-3-carboxamide]
- IC50: 8.8 nM

Compound: COCCNc1ccn2ncc(C(=O)Nc3cc(-c4nnn(C5CC5)n4)ccc3C)c2c1 [Example 88, N-(5-(2-cyclopropyl-2H-tetrazol-5-yl)-2-methylphenyl)-5-((2-methoxyethyl)amino)pyrazolo[1,5-a]pyridine-3-carboxamide]
- IC50: 3.2 nM

Compound: Cc1ccc(-c2nnn(C3CC(F)(F)C3)n2)cc1NC(=O)c1cnn2ccc(NCC(F)(F)CO)cc12 [Example 102, 5-((2,2-difluoro-3-hydroxypropyl)amino)-N-(5-(2-(3,3-difluorocyclobutyl)-2H-tetrazol-5-yl)-2-methylphenyl)pyrazolo[1,5-a]pyridine-3-carboxamide]
- IC50: 2.6 nM

Compound: CCn1nnc(-c2ccc(Cl)c(NC(=O)c3cnn4ccc(-c5c(C)nn(C[C@H](C)O)c5C)cc34)c2)n1 [Example 253, (S)-N-(2-chloro-5-(2-ethyl-2H-tetrazol-5-yl)phenyl)-5-(1-(2-hydroxypropyl)-3,5-dimethyl-1H-pyrazol-4-yl)pyrazolo[1,5-a]pyridine-3-carboxamide]
- IC50: 0.4 nM

Compound: Cc1ccc(-c2nnn(C)n2)cc1NC(=O)c1cnn2ccccc12 [Example 2, N-(2-methyl-5-(2-methyl-2H-tetrazol-5-yl)phenyl)pyrazolo[1,5-a]pyridine-3-carboxamide]
- IC50: 4.8 nM

Compound: Cc1nnn(-c2ccc(Cl)c(NC(=O)c3cnn4ccc(-c5cnn(CC(C)(C)O)c5)cc34)c2)n1 [Example 212, N-(2-chloro-5-(5-methyl-2H-tetrazol-2-yl)phenyl)-5-(1-(2-hydroxy-2-methylpropyl)-1H-pyrazol-4-yl)pyrazolo[1,5-a]pyridine-3-carboxamide]
- IC50: 5.6 nM

Compound: O=C(Nc1cc(-c2nnn(CC3CC3)n2)ccc1Cl)c1cnn2ccccc12 [Example 15, N-(2-chloro-5-(2-(cyclopropylmethyl)-2H-tetrazol-5-yl)phenyl)pyrazolo[1,5-a]pyridine-3-carboxamide]
- IC50: 4.2 nM
